# Assay results taken from paper PMC2734971 (Pharmaceutical research, 2009).
# Where no end group is shown, it is not given here.
# What was measured:
# [1] = test system: solid tumors / αVβ3 integrins; conditions: prostate tumors; cited from earlier work
# [2] = test system: MDA-MB-231 tumor xenografts; test: In vivo MR T1-mapping of MDA-MB-231 tumor-bearing SCID mice; parameters: species or system SCID mice (human breast cancer xenograft)
# [3] = test system: kidney; test: T1-weighted coronal MR imaging, kidney signal; assay type: in vivo, SCID mice; conditions: up to 24 h; 0.03 mmol-Gd/kg i.v.; 9.4 tesla
Substance,enhancement of tumor accumulation vs copolymers without targeting peptide [1],"T1 at tumor site, targetable vs non-targetable, other time points ([2]; 10 min, 30 min, 1, 6, 24 h, 0.03 mmol-Gd/kg i.v.)","mean T1 value at tumor site, 2 h post-injection ([2]; 2 h after i.v. injection, 0.03 mmol-Gd/kg, 9.4 tesla, 4 mice/group, mean±SD)",signal enhancement in kidney [3]
KACDCRGDCFCG (also: bicyclic or more (positions not given here)) [RGD4C],four to fivefold enhancement,,,
"P-RGDfK-Gd: HPMA copolymer with Gd-DOTA and RGDfK side chains; Mw 43,000; 0.428 mmol/g RGDfK, 0.14 mmol/g Gd",,no significant difference,1950 ± 189.8 ms,signal enhancement in kidney up to 24 h
